Data reported in US5567716A, “Trans and cis traumatic acid salts having cicatrizant activity associated to bacteriostatic, antiviral, antibiotic or antifungal activity” (priority 1992, dated 1996).

Tests used:
3T3 fibroblasts = test: Cellular proliferation of 3T3 fibroblasts, neutral red colorimetry (1.1a); assay type: cell-based, Mice
Protocol: Experiments on 3T3 fibroblasts
Mice 3T3 fibroblasts cultures sown at a 40.000/ml concentration on plates having 6 wells in a DMEM culture medium enriched with 10% calf serum are used. After 24 hours culture, the 90 prepared wells are divided in order to allow the analyses of the compounds of the invention, every compound to be tested being used respectively at a concentration of 0.1, 1 and 10 μg/ml by subsequent evaluations after 48 and 72 hours of incubation.
Hexadecyltrimethylammoniun (ETA) traumatare: solubilized in water and brought to the desired final concentrations of 0.1. 1 and 10 μg/ml by progressive dilutions;
Ethanolamine traumatate: solubilized in water and brought to the final concentrations of 0.1, 1 and 10 μg/ml by progressive dilutions;
Traumatic acid: neutralized with sodium hydroxyde and solubilized in water, then brought to the final concentrations of 0.1, 1 and 10 μg/ml by progressive dilutions with the culture medium.
The compounds are added to the cells after 24 hours culture. The cells number is measured by colorimetry with the neutral red intravital stain after 24, 48, 72 hours of incubation.

E. Coli ATCC.35218 = test: Antibacterial activity, diffusion method in agar-germs (2.a); assay type: cell-based
Protocol: (§1) In a Tryprone Soy Agar diffusion medium ATCC (American Type Culture Collection) standard bacterial strains are inoculated, preparing a final solution of 10^6 cfu/g (colony forming unities) of the following strains:
(§2) Every plate contains 20 ml of a medium where 2 equidistant wells having a standard diameter are Formed and in each of these wells […] of the above described bacterial solution are inoculated. 2 plates are prepared for every couple of compounds to be tested at different concentrations, and For every strain, and each of these plates is compared with a white (sterile demineralized water inoculum). After the inoculum, the plates are placed in the refrigerator to favour diffusion and temporaneously blocking bacterial growth.
(§3) The compounds hexadecyltrimethylammonium traumatate and benzyldimethylhexadecylammonium traumatare respectively versus hexadecyl trimethylammonium bromide and benzyldimethylhexadecylammonium chloride are solubilized in demineralized water to Form solutions at the concentrations: 0.1; 0.5; and 1%.
(§4) The antibacterial effect is evaluated by measuring bacterial diffusion halo around the well vs white (halo absence).

PS Maltophila ATCC.13637 = test: as above; assay type: cell-based
Protocol: as §1, §2, §3, §4

[1] = tested on: Pseudomonas Aeruginosa ATCC.35422; test: as above; assay type: cell-based
Protocol: as §1, §2, §3, §4

[2] = tested on: Aspergillus Niger ATCC 16404; test: as above; assay type: cell-based; parameters: unit not given here
Protocol: as §1, §2, §3, §4

[3] = tested on: Candida Albicans ATCC.10231; test: as above; assay type: cell-based; parameters: unit not given here
Protocol: as §1, §2, §3, §4

PS Cepacia ATCC.25416 = test: as above; assay type: cell-based; parameters: unit not given here
Protocol: as §1, §2, §3, §4

[4] = tested on: Stafilococcus Aureus ATCC.65380; test: as above; assay type: cell-based; parameters: unit not given here
Protocol: as §1, §2, §3, §4

[5] = tested on: Stafilococcus Epidermidis ATCC.14990; test: as above; assay type: cell-based; parameters: unit not given here
Protocol: as §1, §2, §3, §4

[6] = tested on: Streptococcus Fecalis ATCC.291212; test: as above; assay type: cell-based; parameters: unit not given here
Protocol: as §1, §2, §3, §4

[7] = tested on: standard bacterial strains; test: Antibacterial activity, diffusion method in agar-germs, all strains (2.a); assay type: cell-based; details: versus hexadecyltrimethylammonium bromide and benzyldimethylhexadecylammonium chloride; in words
Protocol: as §1, §2, §3, §4

B.subtilis ATCC 6633 = test: Evaluation of bacteriostatic minimal concentration (BMC); assay type: cell-based; details: Table 2.b)5; test concentrations given in μg/ml
Protocol: (§5) 1. Culture Medium: Tryprone Soy Broth (TBS) - Biogenetics
(§6) Microbic standard strains from American Type Culture Collection (ATCC) were used, chosen among aerobic Gram positive and negative as follows:
(§7) The broths culture of the different species are prepared growing the standard strain (kept in Tryptic Soy Agar (TSA) slent at 5° C.) in Tryptone Soy Broth (TSB) for 12 hours at 37° C. 10 ml are then taken up from each culture, centrifugated for 3 times at 3500 PM washing each time the sediment using 10 ml of sterile saline solution. The sediment is resuspended in the saline solution until obtainment of a turbidity corresponding to the Mc Farland standard solution (the suspension title must be […] UFC/ml).
(§8) The compounds, dissolved as stock solution, were added to test tubes containing 5 ml TBS in order to obtain the desired Final concentration 10000; 5000; 1000; 200; 40; 2; 0.4; 0.05 μg/ml (culture medium maximal dilution=1/10).
(§9) 50 μl of bacterial suspension are added to the tube containing the compounds to be tested and incubated at 37° C.: the densitometric determination is made in comparison with Mc Farland standard solution 24 and 48 hours later.
(§10) After the incubation time the suspensions ape gently agitated; 50 μl of each suspension are inoculated in tubes containing […] of TSB and incubated at 37° C.; the densitometric determination is made 48 hours later.
(§11) BMC is defined by comparison between the two densitometric evaluation.

C.albicans ATCC 10231 = test: as above; assay type: cell-based; details: Table 2.b)6; test concentrations given in μg/ml
Protocol: as §5, §6, §7, §8, §9, §10, §11

Ps.aeruginosa ATCC 35422 = test: as above; assay type: cell-based; details: Table 2.b)1; test concentrations given in μg/ml
Protocol: as §5, §6, §7, §8, §9, §10, §11

St.aureus ATCC 65380 = test: as above; assay type: cell-based; details: Table 2.b)2; test concentrations given in μg/ml
Protocol: as §5, §6, §7, §8, §9, §10, §11

[8] = tested on: St.epidermidis ATCC 14990; test: as above; assay type: cell-based; details: Table 2.b)4; test concentrations given in μg/ml
Protocol: as §5, §6, §7, §8, §9, §10, §11

E.coli ATCC 35218 = test: microbe, parasite or virus in culture; assay type: cell-based; details: Table 2.b)3; test concentrations given in μg/ml
Protocol: as §5, §6, §7, §8, §9, §10, §11

**Q.** With “hexadecyltrimethylammonium trans-traumatate [Hexadecyltrimethyl Ammonium Traumatate]” as the substance, how does the “effect on cells proliferation” value (3T3 fibroblasts; 0.1 μg/ml, in words) read?
**A.** able to affect cells proliferation according to a not statistically significant trend

**Q.** What about the “effect on cellular proliferation” value (3T3 fibroblasts; 1 μg/ml, in words, ETA salt > ethanolamine salt = traumatic acid) of the same substance?
**A.** able to increase cellular proliferation

**Q.** And the “cells numeration (colorimetric, neutral red)” value (from here on “cells numeration”) (3T3 fibroblasts; 24 hours of incubation, 0.1 (head: μg/ml), control 0.579 ± 0.021)?
**A.** 0.575 ± 0.041

**Q.** What about the “cells numeration” value (3T3 fibroblasts; 24 hours of incubation, 1.0 (head: μg/ml), control 0.579 ± 0.021) of the same substance?
**A.** 0.619 ± 0.033

**Q.** And the “cells numeration” value (3T3 fibroblasts; 24 hours of incubation, 10.0 (head: μg/ml), control 0.579 ± 0.021)?
**A.** 0.491 ± 0.021

**Q.** And the “cells numeration” value (3T3 fibroblasts; 48 hours of incubation, 0.1 (head: μg/ml), control 1.334 ± 0.050)?
**A.** 1.553 ± 0.061

**Q.** And the “cells numeration” value (3T3 fibroblasts; 48 hours of incubation, 1.0 (head: μg/ml), control 1.334 ± 0.050)?
**A.** 1.501 ± 0.081

**Q.** And the “cells numeration” value (3T3 fibroblasts; 48 hours of incubation, 10.0 (head: μg/ml), control 1.334 ± 0.050, ** p < 0.01 significant reduction)?
**A.** 0.842 ± 0.078

**Q.** And the “cells numeration” value (3T3 fibroblasts; 72 hours of incubation, 0.1 (head: μg/ml), control 2.360 ± 0.125)?
**A.** 2.501 ± 0.131

**Q.** What about the “cells numeration” value (3T3 fibroblasts; 72 hours of incubation, 1.0 (head: μg/ml), control 2.360 ± 0.125) of the same substance?
**A.** 2.503 ± 0.100

**Q.** What about the “cells numeration” value (3T3 fibroblasts; 72 hours of incubation, 10.0 (head: μg/ml), control 2.360 ± 0.125, ** p < 0.01 significant reduction) of the same substance?
**A.** 1.385 ± 1.63

**Q.** What about the “time necessary for the cells to reach the confluence” value (3T3 fibroblasts; side control experiment, ETA and ethanolamine salts > traumatic acid) of the same substance?
**A.** reduce the time normally necessary for the cells to reach the confluence

**Q.** And the bacterial diffusion halo (E. Coli ATCC.35218; sol. 0.1%)?
**A.** n.h.

**Q.** And the bacterial diffusion halo (E. Coli ATCC.35218; sol. 0.5%)?
**A.** 13

**Q.** What about the bacterial diffusion halo (E. Coli ATCC.35218; sol. 1%) of the same substance?
**A.** 15

**Q.** What about the bacterial diffusion halo (PS Maltophila ATCC.13637; sol. 0.1%) of the same substance?
**A.** n.h.

**Q.** What about the bacterial diffusion halo (PS Maltophila ATCC.13637; sol. 0.5%) of the same substance?
**A.** 15

**Q.** And the bacterial diffusion halo (PS Maltophila ATCC.13637; sol. 1%)?
**A.** 21

**Q.** What about the bacterial diffusion halo ([1]; sol. 0.1%) of the same substance?
**A.** n.h.

**Q.** What about the bacterial diffusion halo ([1]; sol. 0.5%) of the same substance?
**A.** n.h.

**Q.** What about the bacterial diffusion halo ([1]; sol. 1%) of the same substance?
**A.** n.h.

**Q.** And the bacterial diffusion halo ([2]; sol. 0.1%)?
**A.** 19

**Q.** And the bacterial diffusion halo ([2]; sol. 0.5%)?
**A.** 22

**Q.** And the bacterial diffusion halo ([2]; sol. 1%)?
**A.** 22

**Q.** What about the bacterial diffusion halo ([3]; sol. 0.1%) of the same substance?
**A.** 19

**Q.** And the bacterial diffusion halo ([3]; sol. 0.5%)?
**A.** 24

**Q.** And the bacterial diffusion halo ([3]; sol. 1%)?
**A.** 25

**Q.** And the bacterial diffusion halo (PS Cepacia ATCC.25416; sol. 0.1%)?
**A.** 18

**Q.** And the bacterial diffusion halo (PS Cepacia ATCC.25416; sol. 0.5%)?
**A.** 19

**Q.** What about the bacterial diffusion halo (PS Cepacia ATCC.25416; sol. 1%) of the same substance?
**A.** 22

**Q.** What about the bacterial diffusion halo ([4]; sol. 0.1%) of the same substance?
**A.** 21

**Q.** What about the bacterial diffusion halo ([4]; sol. 0.5%) of the same substance?
**A.** 24

**Q.** And the bacterial diffusion halo ([4]; sol. 1%)?
**A.** 24

**Q.** What about the bacterial diffusion halo ([5]; sol. 0.1%) of the same substance?
**A.** 20

**Q.** And the bacterial diffusion halo ([5]; sol. 0.5%)?
**A.** 22

**Q.** And the bacterial diffusion halo ([5]; sol. 1%)?
**A.** 22

**Q.** And the bacterial diffusion halo ([6]; sol. 0.1%)?
**A.** 20

**Q.** And the bacterial diffusion halo ([6]; sol. 0.5%)?
**A.** 22

**Q.** And the bacterial diffusion halo ([6]; sol. 1%)?
**A.** 22

**Q.** And the “antibacterial and bacteriostatic activity profile” value [7]?
**A.** antibacterial and bacteriostatic activity profile comparable to that of the comparison products

**Q.** And the “MINIMAL BACTERIAL CONCENTRATION” value (B.subtilis ATCC 6633)?
**A.** 2.00

**Q.** And the “MINIMAL BACTERIAL CONCENTRATION” value (C.albicans ATCC 10231)?
**A.** 2.00

**Q.** What about the “MINIMAL BACTERIAL CONCENTRATION” value (Ps.aeruginosa ATCC 35422) of the same substance?
**A.** > 10,000

**Q.** And the “MINIMAL BACTERIAL CONCENTRATION” value (St.aureus ATCC 65380)?
**A.** 1,000.00

**Q.** What about the “MINIMAL BACTERIAL CONCENTRATION” value [8] of the same substance?
**A.** 8.00

**Q.** What about the “MINIMAL BACTERIAL CONCENTRATION” value (E.coli ATCC 35218) of the same substance?
**A.** 200.00
